In patent US20120040976A1, “SMALL MOLECULE IMMUNOMODULATORS FOR ALZHEIMER'S DISEASE” (HUMAN BIOMOLECULAR RESEARCH INSTITUTE, priority 2008, published 2012):
≈ marks a conversion by molar mass, not a printed value.

Assays:
[1] = Metabolic stability in human liver microsomes; assay type: in vitro ADME; conditions: human, read-out: Half life, t1/2 HLM
[2] = Metabolic stability in human S9 fraction; assay type: in vitro ADME; conditions: read-out: Half life, t1/2 S9
[3] = Chemical stability (H2O, pH 7.4); assay type: physicochemical
[4] = Average solubility; assay type: physicochemical
[5] = system: MGAT3; assay: MGAT3 transcription ratio, AD patient / control PBMCs (qPCR); assay type: cell-based, human; conditions: Aβ stimulation
Procedure: (§1) qPCR reactions of cultured monocyte cDNAs. One μL total cellular cDNA per reaction is used in triplicate reactions for each test gene, and for each culture treatment. SYBR-Green reactions were run on a Continuous Fluorescence real-time thermocycler and analyzed. Cycle threshold (Ct) values are recorded for each replicate reaction, and are then averaged and normalized against mean Ct values from one or more control genes. Fold-expression differences relative to untreated cells are determined using the 2^−ΔΔCt method as previously described. Data from the curcumin concentration range are plotted in order to determine EC50 values (concentrations producing one-half maximal stimulant activity), which are used for comparisons of potency between different compounds. Data are also evaluated for each gene with regard to sensitivity, maximally effective concentration of curcuminoid, response to Aβ, and overall magnitude of fold-expression changes.
(§2) MGAT3 and/or TLR transcription were tested by qPCR in human monocyte cells treated with curcuminoids and compared the results to those treated with vehicle (Table 7). As discussed above, activation or up-regulation of macrophage MGAT3 or TLR's results in many functional outcomes, including the enhancement of […] and removal of Aβ, increased apoptosis, secretion of inflammatory cytokines, and other anti-AD antimicrobial activities. […] Thus, the ratio of MGAT3 or TLR transcription upon Aβ stimulation of human monocytes versus vehicle treatment provides an indicator and sensitive method to test the in vitro efficacy of drug candidates. […] The relative biological activity of the curcumin analogs in AD patient and control cells was ascertained in the in vitro Aβ assay described above (see Example 2).

[6] = system: TLR 2; assay: TLR 2 transcription ratio, AD patient / control PBMCs (qPCR); assay type: cell-based, human; conditions: Aβ stimulation
Procedure: as §1, §2

[7] = system: TLR 3; assay: TLR 3 transcription ratio, AD patient / control PBMCs (qPCR); assay type: cell-based, human; conditions: Aβ stimulation
Procedure: as §1, §2

[8] = system: TLR 4; assay: TLR 4 transcription ratio, AD patient / control PBMCs (qPCR); assay type: cell-based, human; conditions: Aβ stimulation
Procedure: as §1, §2

[9] = Average permeability; assay type: in vitro ADME; conditions: not told
[10] = Anti-oxidant activity
[11] = system: MGAT3; assay: MGAT3 gene expression by qPCR in U-937 human monocytic cells treated with curcumins plus Aβ; assay type: cell-based; conditions: human monocytic cells (U-937), curcumin plus Aβ
Procedure: (§3) Cell culture conditions for monocytic cell lines. Human and mouse monocyte cell lines are grown in RPMI-1640 medium with 10% fetal bovine serum (FBS), plus glutamine and pen/strep. For treatment with compounds (curcuminoids+/−Aβ), replicate sets of 0.5-1.0 mL cultures containing 1-2×10^6 cells are set up in the wells of 48-well tissue culture plates. Both replicate sets have at least one control well receiving no added curcuminoid to provide baseline expression controls for untreated, and Aβ-only treated cells. Remaining wells receive curcuminoid in a range of 10-fold serial dilutions in DMSO, typically from […] Cultures are incubated for 20-24 hours (“overnight”) at 37° C. in atmosphere with 5% CO2. After one overnight, to one of replicate sets of cultures is added Aβ (1-42) peptide to a final concentration of 5 μg/mL.
(§4) RNA isolation and cDNA synthesis. After the first overnight incubation in the presence of curcuminoid, cells from one replicate set of wells are collected by centifugation. RNAs are extracted from pelleted cells using miniprep column kits following manufacturer's protocol for animal cells. […] of total cellular RNA from each well is quantitated using a Nanodrop spectrophotometer, and first-strand total cDNA is prepared from 0.3-1.0 μg RNA by random-hexamer priming. Following the second 20 hr. incubation in the presence of Aβ, RNA extractions and cDNA synthesis are similarly performed.
Assay development. Gene-specific mRNA levels are determined using a real-time thermocycler, and by normalizing to expression of one or more control genes. Assays for quantifying mRNA levels are based on gene sequences reported in NCBI Genbank. PCR oligonucleotide primers are selected spanning introns to minimize the opportunity for amplication from any contaminating genomic DNA in the RNA preps. Oligonucleotides are typically tested and used at a concentration of 200 nM in qPCR reactions containing SYBR dye. Control reactions include template from cDNA synthesis reactions either + or − reverse transcriptase (RT), as well as no-template controls (ntc). […] Melt curves based on incremental 0.5° C. increases are determined for new assays to test for uniformity of amplified products. […]
qPCR reactions of cultured monocyte cDNAs. […] SYBR-Green reactions were run on a Continuous Fluorescence real-time thermocycler and analyzed. Cycle threshold (Ct) values are recorded for each replicate reaction, and are then averaged and normalized against mean Ct values from one or more control genes. Fold-expression differences relative to untreated cells are determined using the 2^−ΔΔCt method as previously described. […] Data are also evaluated for each gene with regard to sensitivity, maximally effective concentration of curcuminoid, response to Aβ, and overall magnitude of fold-expression changes. […]

[12] = system: TLR2; assay: TLR2 gene expression by qPCR in U-937 human monocytic cells treated with curcumins plus Aβ; assay type: cell-based; conditions: human monocytic cells (U-937), curcumin plus Aβ
Procedure: as §3, §4
(§5) Assay development. Gene-specific mRNA levels are determined using a real-time thermocycler, and by normalizing to expression of one or more control genes. Assays for quantifying mRNA levels are based on gene sequences reported in NCBI Genbank. PCR oligonucleotide primers are selected spanning introns to minimize the opportunity for amplication from any contaminating genomic DNA in the RNA preps. Oligonucleotides are typically tested and used at a concentration of 200 nM in qPCR reactions containing SYBR dye. Control reactions include template from cDNA synthesis reactions either + or − reverse transcriptase (RT), as well as no-template controls (ntc). All reactions are performed in triplicate. Reactions are typically run with 40 cycles of 95° C. (10 sec) and 58° C. (30 sec). Melt curves based on incremental 0.5° C. increases are determined for new assays to test for uniformity of amplified products. Reaction conditions are modified as needed depending on initial test results. ‘Working’ assays are selected based on clear RNA-dependent amplification and absence of product in ‘ntc’ reactions. The following assay primers are used: […]
(§6) qPCR reactions of cultured monocyte cDNAs. One μL total cellular cDNA per reaction is used in triplicate reactions for each test gene, and for each culture treatment. SYBR-Green reactions were run on a Continuous Fluorescence real-time thermocycler and analyzed. Cycle threshold (Ct) values are recorded for each replicate reaction, and are then averaged and normalized against mean Ct values from one or more control genes. Fold-expression differences relative to untreated cells are determined using the 2^−ΔΔCt method as previously described. […] Data are also evaluated for each gene with regard to sensitivity, maximally effective concentration of curcuminoid, response to Aβ, and overall magnitude of fold-expression changes. […]

[13] = system: TLR3; assay: TLR3 gene expression by qPCR in U-937 human monocytic cells treated with curcumins plus Aβ; assay type: cell-based; conditions: human monocytic cells (U-937), curcumin plus Aβ
Procedure: as §3, §4, §5, §1
(§7) Data showing in vitro up-regulation of genes associated with Aβ phagocytosis in response to curcumins. Natural curcumins and synthetic analogs were tested in U-937 human monocyte cells in vitro for their ability to modulate expression of the genes MGAT3 and TLRs −2, −3, and −4. […]

[14] = system: TLR4; assay: TLR4 gene expression by qPCR in U-937 human monocytic cells treated with curcumins plus Aβ; assay type: cell-based; conditions: human monocytic cells (U-937), curcumin plus Aβ
Procedure: as §3, §4, §5, §6

[15] = system: VDR; assay: VDR gene expression by qPCR in U-937 human monocytic cells treated with curcumins plus Aβ; assay type: cell-based; conditions: human monocytic cells (U-937), curcumin plus Aβ
Procedure: as §3, §4, §5, §1, §7

[16] = water (aqueous solution), pH 7.4, value given in h, read-out: Chemical stability t1/2 pH 7.4 (converted)
[17] = water, H2O, value given in h, read-out: Chemical stability t1/2 H2O (converted)
[18] = water, H2O, read-out: Chemical stability t1/2 H2O (converted)

half-life [1] [min]	half-life [2] [min]	half-life [3, 16] [min]	half-life [3, 17] [min]	solubility [4] [µg/mL]	Papp [9] [×10⁻⁶ cm/s]	IC50 [10] [µM]	half-life [3, 18] [min]	Solubility compared with parent compounds (in words) [4]	SMILES	Relative ratio of MGAT3 transcription in AD patient / control PBMC's [5]	Relative ratio of TLR 2 transcription in AD patient / control PBMC's [6]	Relative ratio of TLR 3 transcription in AD patient / control PBMC's [7]	Relative ratio of TLR 4 transcription in AD patient / control PBMC's [8]	Chemical stability H2O (stable/unstable) ([3]; H2O)	Chemical stability pH 7.4 (stable/unstable) ([3]; pH 7.4)	Relative gene expression MGAT3, increased expression relative to control cells [11]	Relative gene expression TLR2, increased expression relative to control cells [12]	Relative gene expression TLR3, increased expression relative to control cells [13]	Relative gene expression TLR4, increased expression relative to control cells [14]	Relative gene expression VDR, increased expression relative to control cells [15]
63.6	39.5	1530	1190	0.73 (≈ 1.73 µM)					COc1cc(N(C)C)ccc1/C=C/C(=O)/C=C(O)/C=C/c1ccc(N(C)C)cc1OC [Compound 3, 1,7-Bis(4-dimethylamino-2-methoxyphenyl)-5-hydroxy-hepta-1,4,6-trien-3-one]	++ ((++) indicates a ratio of 1.5-2.0)	TLR 2 ++ ((++) indicates a ratio of 1.5-2.0)	TLR 3 ++ ((++) indicates a ratio of 1.5-2.0)	TLR 4 ++ ((++) indicates a ratio of 1.5-2.0)							
127	184				4.8				COc1cc(N(C)C)ccc1/C=C/C(O)=C1\CCC/C(=C\c2ccc(N(C)C)cc2OC)C1=O [Compound 7, 2-(4-(Dimethylamino-2-methoxybenzylidene)-3-(4-(dimethylamino)-2-methoxyphenyl)-1-hydroxyallylidene)cyclohexanone]	+++ ((+++ to ++++) indicates a ratio of 2.0 and above)				stable^a (stability half-lives greater than 5 hours)	stable (stability half-lives greater than 5 hours)					
59.2	8.2			0.44 (≈ 1.18 µM)	129	> 250			COc1ccc(F)cc1/C=C/C(=O)/C=C(O)/C=C/c1cc(F)ccc1OC [Compound 26, 1,7-bis-(5-Fluoro-2-methoxyphenyl)-5-hydroxy-hepta-1,4,6-trien-3-one]		TLR 2 + ((+) indicates a ratio of 1.0-1.5)	TLR 3 ++ ((++) indicates a ratio of 1.5-2.0)	TLR 4 + ((+) indicates a ratio of 1.0-1.5)	stable (stability half-lives greater than 5 hours)	stable (stability half-lives greater than 5 hours)					
						> 250			CC(C)(C)c1ccc(/C=C/C(=O)/C=C(O)/C=C/c2ccc(C(C)(C)C)cc2)cc1 [Compound 30, 1,7-bis(4-tert-Butylphenyl)-5-hydroxyhepta-1,4,6-trien-3-one]	+ ((+) indicates a ratio of 1.0-1.5)	TLR 2 + ((+) indicates a ratio of 1.0-1.5)	TLR 3 ++ ((++) indicates a ratio of 1.5-2.0)	TLR 4 + ((+) indicates a ratio of 1.0-1.5)							
19.9	4.5					> 250	10.2		NCCCCC(N)C(=O)Oc1ccc(/C=C/C(=O)/C=C(O)/C=C/c2ccc(OC(=O)C(N)CCCCN)cc2)cc1 (stereo not drawn) [Compound 34, 4,4′-(3,5-Dioxohepta-1,6-diene-1,7-diyl)bis(4,1-phenylene) bis(2,6-diaminohexanoate)]	++ ((++) indicates a ratio of 1.5-2.0)	TLR 2 +++ ((+++ to ++++) indicates a ratio of 2.0 and above)	TLR 3 ++ ((++) indicates a ratio of 1.5-2.0)	TLR 4 + ((+) indicates a ratio of 1.0-1.5)		unstable^b (stability half-lives less than 5 minutes)					
55.8	9	138	1090	22.8 (≈ 40.2 µM)	572				COc1cc(/C=C/C(=O)/C=C(O)/C=C/c2ccc(OC(=O)C(N)C(C)C)c(OC)c2)ccc1OC(=O)C(N)C(C)C (stereo not drawn) [Compound 35, 4,4′-(3,5-Dioxohepta-1,6-diene-1,7-diyl)bis(2-methoxy-4,1-phenylene)bis(2-amino-3-methylbutanoate)]	++ ((++) indicates a ratio of 1.5-2.0)	TLR 2 +++ ((+++ to ++++) indicates a ratio of 2.0 and above)		TLR 4 + ((+) indicates a ratio of 1.0-1.5)							
19.9	4.5			30.6 (≈ 49 µM)	718		10.2	significantly improved solubility	COc1cc(/C=C/C(=O)/C=C(O)/C=C/c2ccc(OC(=O)C(N)CCCCN)c(OC)c2)ccc1OC(=O)C(N)CCCCN (stereo not drawn) [Compound 36, 4,4′-(3,5-dioxohepta-1,6-diene-1,7-diyl)bis(2-methoxy-4,1-phenylene)bis(2,6-diaminohexanoate)]						unstable (stability half-lives less than 5 minutes)	+ ((+) <20-fold)	+ ((+) <20-fold)	+ ((+) <20-fold)	+ ((+) <20-fold)	+ ((+) <20-fold)
